Patent US20250025451A1, “TREATMENT OF CANCER WITH KDM4 INHIBITORS” (Celgene Corporation, priority 2021, published 2025)

Test system: 301 cancer cell lines from different tumor types
Test: 2D cell viability inhibition assay, broad cancer cell line panel (OncoPanel; CellTiter-Glo)
Type: cell-based
Parameters: key to Emax: % of DMSO control (minimum response over dose range); AUC: scale not given here
Settings: for AUC / Emax: 168 hours; for Emax: in % (unit assumed)
Protocol: In a larger screening study, compound 1 was evaluated across a broad cancer cell line panel (OncoPanel; HD Biosciences) composed of 301 cancer cell lines from different tumor types.
2D cell viability inhibition assays were performed in multiwell plates seeded with cells from the panel. After seeding, the plates were cultured overnight in a humidified incubator at 37° C. to promote adherence. Assays were initiated in individual wells by adding either DMSO as a vehicle control, growth media as a blank, or serially diluted compound 1 (10 μM to 0.0005 μM with 1:3 serial dilution). Cultures were incubated for 168 hours after which the number of viable cells in each test well was assessed using the CellTiter-Glo® Luminescent Cell Viability Assay. Luminescence readouts were performed using an EnVision® Multilabel Reader and the compound 1 readouts were normalized to the DMSO control readouts, expressed as a percent of the control. Outliers were flagged out by visual inspection. Percent of control was plotted against the corresponding compound 1 concentration and the absolute IC50 value was determined using four-parameter logistic non-linear regression as the concentration where inhibition was 50% of the control. […] Emax was recorded as the minimum in y with the compound dose range. […] The sensitive/moderate/resistant calls for each cell line was determined by visually inspecting the resulting clustering dendrogram. All the analyses were done in R Core Team.

[1] = NCIH596 (lung, mixed adenosquamous carcinoma)
[2] = NCIH1395 (lung, adenocarcinoma)
[3] = NCIH1435 (lung, non-small cell carcinoma)
[4] = NCIH1563 (lung, adenocarcinoma)
[5] = NCIH1573 (lung, adenocarcinoma)
[6] = NCIH1650 (lung, bronchioloalveolar adenocarcinoma)
[7] = NCIH1755 (lung, adenocarcinoma)
[8] = NCIH1838 (lung, non-small cell carcinoma)
[9] = NCIH2009 (lung, adenocarcinoma)
[10] = NMCG1 (central nervous system, NS)
[11] = ONS76 (central nervous system, NS)
[12] = SCC9 (upper aerodigestive tract, squamous cell carcinoma)
[13] = SCC15 (upper aerodigestive tract, squamous cell carcinoma)
[14] = SCC25 (upper aerodigestive tract, squamous cell carcinoma)
[15] = SNUC1 (large intestine, adenocarcinoma)
[16] = SW579 (thyroid, anaplastic carcinoma)
[17] = SW579, 168 h, SW579 (thyroid, anaplastic carcinoma)
[18] = SW837 (large intestine, adenocarcinoma)
[19] = SW1271 (lung, small cell carcinoma)
[20] = SW1271, 168 h, SW1271 (lung, small cell carcinoma)
[21] = SW1417 (large intestine, adenocarcinoma)
[22] = T24 (urinary tract, transitional cell carcinoma)
[23] = TE1 (oesophagus, squamous cell carcinoma)
[24] = TE8 (oesophagus, squamous cell carcinoma)
[25] = TE15 (oesophagus, squamous cell carcinoma)
[26] = UACC812 (breast, ductal carcinoma)
[27] = VCAP (prostate, adenocarcinoma)

SMILES: CC(C)c1ccc(N(C)c2ccc3c(c2)OCC[C@H]3CNc2cnccc2C(=O)O)cc1 [Compound 1, 3-({[(4R)-7-{methyl[4-(propan-2-yl)phenyl]amino}-3,4-dihydro-2H-1-benzopyran-4-yl]methyl}amino)pyridine-4-carboxylic acid]
- AUC (NCIH441 (lung, adenocarcinoma)): 0.7804
- Emax (NCIH441 (lung, adenocarcinoma)): 67.49
- AUC [1]: 0.8151
- Emax [1]: 61.34
- AUC [2]: 0.8542
- Emax [2]: 70.68
- AUC [3]: 0.7612
- Emax [3]: 60.04
- AUC [4]: 0.9652
- Emax [4]: 93.507
- AUC [5]: 0.7482
- Emax [5]: 53.57
- AUC [6]: 0.8746
- Emax [6]: 68.07
- AUC [7]: 1.29
- Emax [7]: 123.3293
- AUC [8]: 0.7858
- Emax [8]: 60.0585
- AUC [9]: 0.7914
- Emax [9]: 55.69
- AUC (NIHOVCAR3 (ovary, NS)): 0.7771
- Emax (NIHOVCAR3 (ovary, NS)): 59.47
- AUC [10]: 0.7013
- Emax [10]: 47.06
- AUC [11]: 0.7336
- Emax [11]: 54.63
- AUC (RPMI7951 (skin, NS)): 0.8067
- Emax (RPMI7951 (skin, NS)): 66.31
- AUC (SAOS2 (bone, NS)): 1.081
- Emax (SAOS2 (bone, NS)): 92.52
- AUC [12]: 0.9424
- Emax [12]: 69.25
- AUC [13]: 0.9489
- Emax [13]: 90.39
- AUC [14]: 0.7789
- Emax [14]: 62.3079
- AUC (SKHEP1 (liver, adenocarcinoma)): 0.7091
- Emax (SKHEP1 (liver, adenocarcinoma)): 44.3029
- AUC (SKMEL24 (skin, NS)): 0.7882
- Emax (SKMEL24 (skin, NS)): 58.12
- AUC (SKMEL31 (skin, NS)): 0.7393
- Emax (SKMEL31 (skin, NS)): 59.49
- AUC (SKNSH (autonomic ganglia, NS)): 0.7295
- Emax (SKNSH (autonomic ganglia, NS)): 53.89
- AUC (SKOV3 (ovary, adenocarcinoma)): 0.9901
- Emax (SKOV3 (ovary, adenocarcinoma)): 96.03
- AUC [15]: 0.7478
- Emax [15]: 55.45
- AUC [16]: 0.9203
- Emax [16]: 79.98
- EC50 [17]: ≥ 10 µM
- IC50 [17]: ≥ 10 µM
- AUC [18]: 0.7109
- Emax [18]: 46.73
- AUC [19]: 0.8179
- Emax [19]: 65.38
- EC50 [20]: ≥ 10 µM
- IC50 [20]: ≥ 10 µM
- AUC [21]: 0.9634
- Emax [21]: 91.96
- AUC [22]: 0.9289
- Emax [22]: 75.74
- AUC [23]: 0.938
- Emax [23]: 84.54
- AUC [24]: 0.816
- Emax [24]: 72.1307
- AUC [25]: 1.084
- Emax [25]: 89.04
- AUC [26]: 0.8418
- Emax [26]: 62.67
- AUC [27]: 0.7822
- Emax [27]: 62.6
